Measurements reported in ChEMBL document CHEMBL4376892, “Identification of Parthenolide Dimers as Activators of Pyruvate Kinase M2 in Xenografts of Glioblastoma Multiforme in Vivo” (J Med Chem, 2020).
Activity calls are given as the source filed them. The calls are words filed in the database; no cut-off is given here.

Experiments:
Pyruvate kinase PKM [1] = target: T1, Pyruvate kinase PKM (Homo sapiens, UniProt P14618); test: Activation of recombinant human N-terminal 6His-tagged PKM2 expressed in Escherichia coli BL21 cells at 10 uM after 30 mins by fluorescence based analysis relative to control
T1 sequence (P14618 2-531 limits assumed): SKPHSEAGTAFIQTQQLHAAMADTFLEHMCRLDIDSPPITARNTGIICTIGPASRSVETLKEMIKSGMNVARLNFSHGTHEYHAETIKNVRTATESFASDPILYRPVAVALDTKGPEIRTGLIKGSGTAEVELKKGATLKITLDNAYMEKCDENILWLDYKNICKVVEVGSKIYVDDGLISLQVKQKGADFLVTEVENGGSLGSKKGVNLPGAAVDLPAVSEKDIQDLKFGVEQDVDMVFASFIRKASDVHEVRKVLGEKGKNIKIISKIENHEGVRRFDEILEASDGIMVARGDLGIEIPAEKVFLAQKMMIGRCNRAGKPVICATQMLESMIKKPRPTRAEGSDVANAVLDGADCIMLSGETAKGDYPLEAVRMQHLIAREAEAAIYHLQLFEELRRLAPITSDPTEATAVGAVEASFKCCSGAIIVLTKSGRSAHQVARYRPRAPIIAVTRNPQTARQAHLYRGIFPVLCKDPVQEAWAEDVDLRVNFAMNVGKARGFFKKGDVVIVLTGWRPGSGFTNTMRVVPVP

U-87 MG [2] = test: Antiproliferative activity against human U87 cells assessed as reduction in cell viability after 72 hrs by MTT assay; assay type: functional, cell-based, U-87MG ATCC
U-118-MG [3] = test: Antiproliferative activity against human U118MG cells assessed as reduction in cell viability after 72 hrs by MTT assay; assay type: functional, cell-based
HeLa = test: Antiproliferative activity against human HeLa cells assessed as reduction in cell viability after 72 hrs by MTT assay; assay type: functional, cell-based
SUM-159-PT = test: Antiproliferative activity against human SUM159 cells assessed as reduction in cell viability after 72 hrs by MTT assay; assay type: functional, cell-based
A549 = test: Antiproliferative activity against human A549 cells assessed as reduction in cell viability after 72 hrs by MTT assay; assay type: functional, cell-based; conditions: A549, 72 h
U-87 MG [4] = test: Induction of apoptosis in human U87 cells after 48 hrs by Annexin-V-FITC/PI-staining based flow cytometric analysis; assay type: functional, cell-based; conditions: U-87MG ATCC
U-87MG ATCC [5] = test: Effect on total PKM2 protein expression in human U87 cells at 0.5 to 5 uM after 48 hrs by Western blot analysis; assay type: functional, cell-based
Pyruvate kinase PKM [6] = target: T1, Pyruvate kinase PKM; test: Inhibition of PKM2 dimer nuclear translocation in human U87 cells assessed as reduction in PKM2 accumulation in nucleus at 0.5 to 1 uM after 48 hrs by Western blot analysis; assay type: cell-based; conditions: U-87MG ATCC
Pyruvate kinase PKM [7] = target: T1, Pyruvate kinase PKM; test: Activation of PKM2 in human U87 cells assessed as increase in PKM2 tetramer formation at 0.5 to 1 uM after 48 hrs by chemical cross-linking based Western blot analysis; assay type: cell-based; conditions: U-87MG ATCC
Pyruvate kinase PKM [8] = target: T1, Pyruvate kinase PKM; test: Activation of PKM2 in human U118MG cells assessed as increase in PKM2 tetramer formation at 0.5 to 1 uM after 48 hrs by chemical cross-linking based Western blot analysis; assay type: cell-based
Pyruvate kinase PKM [9] = target: T1, Pyruvate kinase PKM; test: Induction of tetrameric formation of recombinant human N-terminal 6His-tagged PKM2 expressed in Escherichia coli BL21 cells assessed as increase in particle size at 10 uM after 30 mins by dynamic laser light scattering analysis
U-118-MG [10] = test: Effect on IKK-beta protein expression in human U118MG cells at 0.2 to 0.5 uM after 48 hrs by Western blot analysis; assay type: functional, cell-based
Pyruvate kinase PKM [11] = target: T1, Pyruvate kinase PKM; test: Activation of PKM2 in human U87 cells assessed as inhibition of STAT3 protein expression at 1 to 2 uM after 24 hrs by Western blot analysis; assay type: cell-based; conditions: U-87MG ATCC
Pyruvate kinase PKM [12] = target: T1, Pyruvate kinase PKM; test: Activation of PKM2 in human U118MG cells assessed as inhibition of STAT3 protein expression at 1 to 2 uM after 24 hrs by Western blot analysis; assay type: cell-based
Pyruvate kinase PKM [13] = target: T1, Pyruvate kinase PKM; test: Activation of PKM2 in human U118MG cells assessed as increase in E-cadherin expression at 1 to 2 uM after 24 hrs by Western blot analysis; assay type: cell-based
Pyruvate kinase PKM [14] = target: T1, Pyruvate kinase PKM; test: Activation of PKM2 in human U87 cells assessed as reduction in vimentin expression at 1 to 2 uM after 24 hrs by Western blot analysis; assay type: cell-based; conditions: U-87MG ATCC
Pyruvate kinase PKM [15] = target: T1, Pyruvate kinase PKM; test: Activation of PKM2 in human U118MG cells assessed as reduction in vimentin expression at 1 to 2 uM after 24 hrs by Western blot analysis; assay type: cell-based
Pyruvate kinase PKM [16] = target: T1, Pyruvate kinase PKM; test: Activation of PKM2 in human U87 cells assessed as increase in bax protein expression at 1 to 2 uM after 48 hrs by Western blot analysis; assay type: cell-based; conditions: U-87MG ATCC
Pyruvate kinase PKM [17] = target: T1, Pyruvate kinase PKM; test: Activation of PKM2 in human U118MG cells assessed as increase in bax protein expression at 1 to 2 uM after 48 hrs by Western blot analysis; assay type: cell-based
U-87MG ATCC [18] = test: Induction of PDK4 protein expression in human U87 cells at 5 uM after 48 hrs by Western blot analysis; assay type: functional, cell-based
U-118-MG [19] = test: Antiproliferative activity against human U118MG cells transfected with lentivirus expressing shPKM2 assessed as as reduction in cell viability after 24 hrs by MTT assay; assay type: functional, cell-based
U-87 MG [20] = test: Antiproliferative activity against human U87 cells transfected with lentivirus expressing shNC assessed as reduction in cell viability after 24 hrs by MTT assay; assay type: functional, cell-based, U-87MG ATCC
U-87 MG [21] = test: Induction of apoptosis in human U87 cells transfected with lentivirus expressing shNC assessed as early apoptotic cells after 48 hrs by Annexin-V-FITC/PI-staining based flow cytometric analysis (reference value: 0.588%); assay type: functional, U-87MG ATCC
U-87 MG [22] = test: Induction of apoptosis in human U87 cells transfected with lentivirus expressing shPKM2 assessed as early apoptotic cells after 48 hrs by Annexin-V-FITC/PI-staining based flow cytometric analysis (reference value: 0.88%); assay type: functional, U-87MG ATCC
U-118-MG [23] = test: Induction of apoptosis in human U118MG cells transfected with lentivirus expressing shNC assessed as viable cells after 48 hrs by Annexin-V-FITC/PI-staining based flow cytometric analysis (reference value: 96.7%); assay type: functional
U-118-MG [24] = test: Induction of apoptosis in human U118MG cells transfected with lentivirus expressing shNC assessed as late apoptotic cells after 48 hrs by Annexin-V-FITC/PI-staining based flow cytometric analysis (reference value: 0.334%); assay type: functional
U-118-MG [25] = test: Induction of apoptosis in human U118MG cells transfected with lentivirus expressing shPKM2 assessed as necrotic cells after 48 hrs by Annexin-V-FITC/PI-staining based flow cytometric analysis (reference value: 0.105%); assay type: functional
U-118-MG [26] = test: Antimigratory activity against human U118MG cells transfected with lentivirus expressing shPKM2 at 2 uM incubated for 48 hrs by crystal violet staining based transwell assay; assay type: functional, cell-based
U-87 MG [27] = test: Antiinvasive activity against human U87 cells transfected with lentivirus expressing shPKM2 at 2 uM incubated for 48 hrs by crystal violet staining based transwell assay; assay type: functional, cell-based; conditions: U-87MG ATCC
U-118-MG [28] = test: Induction of apoptosis in human U118MG cells assessed as viable cells after 48 hrs by Annexin-V-FITC/PI-staining based flow cytometric analysis (reference value: 96.7%); assay type: functional
U-118-MG [29] = test: Induction of apoptosis in human U118MG cells assessed as early apoptotic cells after 48 hrs by Annexin-V-FITC/PI-staining based flow cytometric analysis (reference value: 1.35%); assay type: functional
U-118-MG [30] = test: Induction of apoptosis in human U118MG cells assessed as necrotic cells after 48 hrs by Annexin-V-FITC/PI-staining based flow cytometric analysis (reference value: 1.37%); assay type: functional
U-87 MG [31] = test: Induction of apoptosis in human U87 cells assessed as late apoptotic cells after 48 hrs by Annexin-V-FITC/PI-staining based flow cytometric analysis (reference value: 1.22%); assay type: functional, U-87MG ATCC
Pyruvate kinase PKM [32] = target: T1, Pyruvate kinase PKM; test: Binding affinity to recombinant human N-terminal 6His-tagged PKM2 expressed in Escherichia coli BL21 cells assessed as increase in thermal stability of enzyme at melting temperature of 42 to 56 degC at 10 to 50 uM by western blot analysis
U-87 MG [33] = test: Antimigratory activity against human U87 cells transfected with lentivirus expressing shNC at 2 uM incubated for 48 hrs by crystal violet staining based transwell assay; assay type: functional, cell-based; conditions: U-87MG ATCC
U-118-MG [34] = test: Antiinvasive activity against human U118MG cells transfected with lentivirus expressing shNC at 2 uM incubated for 48 hrs by crystal violet staining based transwell assay; assay type: functional, cell-based
U-87 MG [35] = test: Antiinvasive activity against human U87 cells transfected with lentivirus expressing shNC at 2 uM incubated for 48 hrs by crystal violet staining based transwell assay; assay type: functional, cell-based; conditions: U-87MG ATCC

C=C1C(=O)O[C@H]2[C@H]1CC/C(C(=O)OCCOCCOC(=O)/C1=C/CC[C@@]3(C)O[C@H]3[C@H]3OC(=O)C(=C)[C@@H]3CC1)=C\CC[C@@]1(C)O[C@@H]21
fold change (FC) (Pyruvate kinase PKM [1]): > 2
IC50 (U-87 MG [2]): 3.03 µM
IC50 (U-118-MG [3]): 1.8 µM
IC50 (HeLa): 5.05 µM
IC50 (SUM-159-PT): 2.82 µM
IC50 (A549): 11.9 µM
Activity (U-87 MG [4]): Dose-dependent effect
Activity (U-87MG ATCC [5]): inactive
inhibition (Pyruvate kinase PKM [6]): Active
Activity (Pyruvate kinase PKM [7]): Active
Activity (Pyruvate kinase PKM [8]): Active
Activity (Pyruvate kinase PKM [9]): Active
Activity (U-118-MG [10]): inactive
Activity (Pyruvate kinase PKM [11]): Active
Activity (Pyruvate kinase PKM [12]): Active
Activity (Pyruvate kinase PKM [13]): Active
Activity (Pyruvate kinase PKM [14]): Active
Activity (Pyruvate kinase PKM [15]): Active
Activity (Pyruvate kinase PKM [16]): Active
Activity (Pyruvate kinase PKM [17]): Active
Activity (U-87MG ATCC [18]): Active
IC50 (U-118-MG [19]): 1.98 µM
IC50 (U-87 MG [20]): 7.39 µM
Activity (U-87 MG [21]): 9.99%
Activity (U-87 MG [22]): 3.74%
Activity (U-118-MG [23]): 34.7%
Activity (U-118-MG [24]): 16.4%
Activity (U-118-MG [25]): 0.09%
Activity (U-118-MG [26]): inactive
Activity (U-87 MG [27]): inactive
Activity (U-118-MG [28]): 12.5%
Activity (U-118-MG [29]): 39.4%
Activity (U-118-MG [30]): 6.01%
Activity (U-87 MG [31]): 2.82%
Activity (Pyruvate kinase PKM [32]): Active
Activity (U-87 MG [33]): Active
Activity (U-118-MG [34]): Active
Activity (U-87 MG [35]): Active
